According to US20200147070A1, “INDUCING PHOSPHOLIPIDOSIS FOR ENHANCING THERAPEUTIC EFFICACY” (Nextcea Inc., priority 2017, published 2020):

Experiments:
[1] = target: cathepsin B1 (Rattus norvegicus, UniProt P00787); conditions: Wibo and Poole 1974; cited from earlier work
[2] = system: di-22:6-BMP; test: PL biomarker di-22:6-BMP in tissues and urine; assay type: in vivo, Sprague-Dawley rats; conditions: 2 weeks; for PL biomarker di-22:6-BMP in tissues (PL induced in both treatment groups): amiodarone 150 mg/kg/day alone or co-administered with fluoxetine 10 mg/kg/day, heart, liver, kidney, lung; for di-22:6-BMP biomarker in various tissues (PL induced): fluoxetine 10 mg/kg/day alone or co-administered with amiodarone 150 mg/kg/day
[3] = Fluoxetine tissue concentrations, alone or co-administered with amiodarone; assay type: in vivo, Sprague-Dawley rats; conditions: fluoxetine 10 mg/kg/day co-administered with amiodarone 150 mg/kg/day, 2 weeks; tissues including brain
Description: FIG. 8 is a set of graphs showing that PL-induction increased drug tissue concentrations to enhance in vivo drug efficacy.
PL was induced as indicated by an increase in the di-22:6-BMP biomarker in various tissues.

[4] = system: liver, kidney, and heart; test: Electron microscopic examination of tissue sections for phospholipidosis, 2-week repeat dose study; assay type: in vivo, Sprague-Dawley rats; conditions: co-administered bedaquiline 60 mg/kg/day and citalopram 70 mg/kg/day, 2 weeks
Experimental: FIG. 3 is a set of electron micrographs depicting the accumulation of lysosomal myeloid bodies, indicative of PL, in rat tissues. Sprague-Dawley rats received once daily oral (PO) co-administration of bedaquiline (60 mg/kg/day) and citalopram (70 mg/kg/day) for 2 weeks.
Sprague-Dawley rats were co-administered bedaquiline (60 mg/kg/day) and citalopram (70 mg/kg/day) in a 2-week repeat dose study. Tissue sections (liver, kidney, and heart) were collected at 2 weeks for electron microscopic examination and PL biomarker/proteomic evaluation.

[5] = target: T1, cathepsin-B (Rattus norvegicus, UniProt P00787); test: Fluorescence-based cathepsin-B activity assay (RR-AFC substrate) in liver and spleen homogenates of treated rats; assay type: in vivo, Sprague-Dawley rats
T1 construct: from tissue; host or cells: liver and spleen homogenates of Sprague-Dawley rats
Experimental: Cathepsin-B is a lysosomal protease that plays an important role in intracellular proteolysis. […] Liver and spleen homogenates were analyzed using a fluorescence-based assay that utilized the preferred cathepsin-B substrate sequence RR labeled with amino-4-trifluoromethyl coumarin (AFC). Samples that contain cathepsin-B cleave the synthetic substrate RR-AFC to release free AFC.

[6] = amiodarone 150 mg/kg/day co-administered with fluoxetine 10 mg/kg/day, 2 weeks, vs amiodarone alone
Description: Heart, liver, kidney and lung tissues were collected at necropsy at 2 weeks.

T1 sequence (P00787 80-333): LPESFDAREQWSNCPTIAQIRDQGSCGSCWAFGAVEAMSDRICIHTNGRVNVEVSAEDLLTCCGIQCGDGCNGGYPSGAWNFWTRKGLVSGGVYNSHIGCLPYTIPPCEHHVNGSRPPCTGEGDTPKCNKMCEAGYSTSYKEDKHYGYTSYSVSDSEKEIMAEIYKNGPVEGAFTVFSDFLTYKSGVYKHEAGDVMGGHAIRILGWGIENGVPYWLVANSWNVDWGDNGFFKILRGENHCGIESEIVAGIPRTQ
cathepsin B1, sequence (P00787 80-333): as above

CCN(CC)CCCC(C)Nc1ccnc2cc(Cl)ccc12 (centres unmarked) [chloroquine]
cathepsin B1 activities [1]: inhibited

CNCCC(Oc1ccc(C(F)(F)F)cc1)c1ccccc1 (centres unmarked) [fluoxetine]
PL biomarker di-22:6-BMP in tissues (PL induced in both treatment groups) [2]: increase | di-22:6-BMP biomarker in various tissues (PL induced) [2]: increase | fluoxetine concentrations in tissues, compared to fluoxetine alone [3]: increased

COc1nc2ccc(Br)cc2cc1[C@@H](c1ccccc1)[C@@](O)(CCN(C)C)c1cccc2ccccc12 [bedaquiline]
multi-lamellar lysosomal inclusions and electron dense deposits (indicative of drug-induced PL) [4]: treatment-dependent increase | biomarker di-22:6-BMP in rat tissues and urine ([2]; co-administered bedaquiline 60 mg/kg/day and citalopram 70 mg/kg/day): increase

CCCCc1oc2ccccc2c1C(=O)c1cc(I)c(OCCN(CC)CC)c(I)c1 [amiodarone]
PL biomarker di-22:6-BMP in tissues (PL induced in both treatment groups) [2]: increase | di-22:6-BMP biomarker in various tissues (PL induced) [2]: increase | activity of cathepsin B in rat liver and spleen ([5]; PL induced by amiodarone): slowed | levels of free AFC in tissues compared to controls (cathepsin-B activity) ([5]; amiodarone 150 mg/kg/day, 2 weeks, liver and spleen homogenates): lower | concentration of amiodarone in the lung tissue [6]: decreased
